US12532886B2, “Method of killing microbes using C3-C5 n-alkyl-gamma-butyrolactams and antimicrobial compositions containing same” (Virox Technologies Inc., priority 2018, dated 2026)

Test system: M. smegmatis
Test: ASTM E2197-02 test method, without soil load, against mycobacteria
Format: cell-based
Description: Solutions A, B and AA were prepared to test the antimicrobial activity of N-alkyl-gamma-butyrolactam, specifically N-butyl-gamma-butyrolactam and N-octyl-gamma-butyrolactam. These solutions were tested using the ASTM E2197-02 test method (5-minute contact time or 75 second contact time) without soil load, against hard-to-kill mycobacteria (M. smegmatis).
Solution B was also tested using ASTM E2197-02 test method (75 second contact time), without soil load, against mycobacteria (M. smegmatis) and achieved a log10 reduction of 0.11 (shown in the last row of Table 1.0).
Additional solutions were prepared to assess the antimicrobial activity of N-alkyl-gamma-butyrolactam, specifically N-butyl-gamma-butyrolactam, when combined with other antimicrobial agents in aqueous solution. These solutions are summarized in Tables 2.0, 2.1, and 2.2 below and tested using ASTM E2197-02 test method (75 second contact time), without soil load, against mycobacteria (M. smegmatis).

SMILES	Antimicrobial activity against M. smegmatis, 5 minutes contact time
CCCCN1CCCC1=O [N-butyl-gamma-butyrolactam]	possesses antimicrobial activity
CCCCCCCCN1CCCC1=O [N-octyl-gamma-butyrolactam]	no antimicrobial activity
